In US20170348375A1, “DISLODGEMENT AND RELEASE OF HSC FROM THE BONE MARROW STEM CELL NICHE USING ALPHA9 INTEGRIN ANTAGONISTS” (COMMONWEALTH SCIENTIFIC AND INDUSTRIAL RESEARCH ORGANISATION, priority 2014, published 2017):
Where two headings read alike, the source gives them in different places.

How the values were obtained:
[1] = test system: WBC, LSK and LSKSLAM in PB; assay: Mobilization of HSC and progenitors into peripheral blood; format: in vivo, mouse; conditions: R-BC154, s.c., 15 and 30 mins post-injection
Experimental: For mobilization experiments, all mice received subcutaneous injections at 100 μl/10 gm body weight and PB was harvested by throat bleed using EDTA coated syringes.

α9β1 integrin = target: T1, α9β1 integrin (Homo sapiens, UniProt P05556+Q13797); assay: On-rate and off-rate kinetics of R-BC154 binding to α9β1 LN18 cells; conditions: for kobs: 50 nM, 37° C., fast phase; for kon: (kobs − koff)/50 nM
T1 construct: expressed in transfected cells; host or cells: human glioblastoma LN18 (ATCC CRL-2610), retrovirally transduced; α4 silenced with pSM2c-shITGA4
Experimental: (§1) Mean channel fluorescence was plotted against time and the data was fitted to either a one-phase or two-phase exponential decay function using GraphPad Prism 6. The off-rate, koff was extrapolated from the curves.
(§2) Eppendorf vials containing α4β1 or α9β1 LN18 cells (0.5×10^6 cells) in 50 μl TBS-2% FBS containing either 1 mM CaCl2—MgCl2 or 1 mM MnCl2 were pre-activated in a heating block for 20 min at 37° C. […] The cells were washed once TBS-2% FBS (with relevant cations), pelleted by centrifugation and resuspended (200 μl) in the relevant binding buffer for flow cytometric analysis. Mean channel fluorescence was plotted against time and the data was fitted to either a one-phase or two phase association function using GraphPad Prism 6. The observed on-rate, kobs was extrapolated from the curves and kon was calculated using […]

human integrin α9β1 = target: T2, human integrin α9β1 (Homo sapiens, UniProt P05556+Q13797); assay: Saturation binding to α9β1 over-expressing LN18 cells (flow cytometry); conditions: for Kd: α9β1 LN18 cells, read-out: Kd (dissociation constant), α9β1
T2 construct: expressed in transfected cells; host or cells: human glioblastoma LN18 (ATCC CRL-2610), retrovirally transduced; α4 silenced with pSM2c-shITGA4
Experimental: (§3) Stable LN18 cells ((ATCC number: CRL-2610) over-expressing integrin α4β1 (LN18 α4β1) or α9β1 (LN18 α9β1)) were generated by retroviral transduction using the pMSCV-hITGA4-IRES-hITGB1 and pMSCV-hITGA9-IRES-hITGB1 vectors as previously described in J Grassinger, et al Blood, 2009, 114, 49-59 and were maintained in DMEM supplemented with 2 mM […] in 10% FBS. Transduced cells were selected by two rounds of FACS using 2.5 μg ml^−1 PE-Cy5-conjugated mouse-anti-human α4 antibody (BD Bioscience) or 20 μg ml^−1 of mouse-anti-human α9β1 antibody (Millipore) in PBS-2% FBS, followed by 0.5 μg ml^−1 of PE-conjugated goat-anti-mouse IgG (BD Bio-science). Silencing of α4 expression in LN18 and LN18 α9β1 cells was performed as described above using pSM2c-shITGA4 (Open Biosystems). α4-silenced LN18 cells (control cell line; LN18 SiA4) and LN18 α9β1 (LN18 α9β1SiA4) were negatively selected for α4 expression using FACS.
(§4) The cells were incubated at 37° C. for 60 min, washed once with TBS-2% FBS, dry pelleted and resuspended in the relevant binding buffer for flow cytometric analysis. Mean channel fluorescence was plotted against concentration and fitted to a one-site saturation ligand binding curve using GraphPad Prism 6. The dissociation constant, Kd was determined from the curves.

[2] = test system: bone marrow progenitor cells (LSK) and HSC (LSKSLAM); assay: In vivo bone marrow binding assay; set-up: species or system mouse
Experimental: After 5 min, bone marrow cells were isolated as previously described in D. N. Haylock et al Stem Cells, 2007, 25, 1062-1069 and J. Grassinger, et al Cytokine, 2012, 58, 218-225. Briefly, one femur, tibia and iliac crest were excised and cleaned of muscle. After removing the epi- and metaphyseal regions, bones were flushed with PBS-2% FBS to obtain whole bone marrow, which were washed with PBS-2% FBS and then immunolabelled for flow cytometry. […] For staining progenitor cells (LSK; Lineage−Sca-1^+c-kit^+) and HSC (LSKSLAM; LSKCD150+CD48−), cells were labelled with a lineage cocktail (CD3, Ter-119, Gr-1, Mac-1, B220; all antibodies APC-Cy7 conjugated), anti-Sca-1-PB, anti-c-kit-AF647, anti-CD48-FITC and anti-CD150-BV650.
(§5) Cells were washed with cold PBS (2% F BS) and then immunolabelled as described in “Antibody Cocktails” prior to flow cytometric analysis.
Sorted cells were imaged using an Olympus BX51 microscope.

[3] = test system: human cord blood mononuclear cells (MNC); assay: In vitro R-BC154 binding to human cord blood mononuclear cells; format: cell-based
Experimental: Mononuclear cells (MNC) were isolated from cord blood as previously described in Nilsson, S. K. et al Blood 106, 1232-1239, (2005) and Grassinger, J. et al. Blood 114, 49-59, (2009). MNCs were incubated with a lineage antibody cocktail containing mouse anti-human CD3, CD11b, CD14, CD16, CD20, CD24, and CD235a (BD) and then treated with two rounds of Dynal sheep anti-mouse IgG beads (Invitrogen, Carlsbad, Calif.) at a ratio of 2 beads per cell for 5 min and then 10 min at 4° C. with constant rotation. Enriched MNC were stained with CD34-fluorescein isothiocyanate (FITC) CD34^+ cells purified by FACS.
as §5

human integrin α4β1 = target: T3, human integrin α4β1 (Homo sapiens, UniProt P05556+P13612); assay: Saturation binding to α4β1 over-expressing LN18 cells (flow cytometry); conditions: for Kd: α4β1 LN18 cells, read-out: Kd (dissociation constant), α4β1
T3 construct: expressed in transfected cells; host or cells: human glioblastoma LN18 (ATCC CRL-2610), retrovirally transduced
Experimental: as §3, §4

[4] = test system: control LN18 cells (LN18 SiA4); assay: Saturation binding to control LN18 cells (no integrins); set-up: species or system human; conditions: 1 mM Ca2+/Mg2+
Experimental: as §3, §4

α4β1 integrin = target: T4, α4β1 integrin (Homo sapiens, UniProt P05556+P13612); assay: On-rate and off-rate kinetics of R-BC154 binding to α4β1 LN18 cells; conditions: for kobs / kon / koff: α4β1 cells; for kobs: 50 nM, 37° C., fast phase; for kon: (kobs − koff)/50 nM
T4 construct: expressed in transfected cells; host or cells: human glioblastoma LN18 (ATCC CRL-2610), retrovirally transduced
Experimental: as §1, §2

T1 sequence (Q13797 30-1035): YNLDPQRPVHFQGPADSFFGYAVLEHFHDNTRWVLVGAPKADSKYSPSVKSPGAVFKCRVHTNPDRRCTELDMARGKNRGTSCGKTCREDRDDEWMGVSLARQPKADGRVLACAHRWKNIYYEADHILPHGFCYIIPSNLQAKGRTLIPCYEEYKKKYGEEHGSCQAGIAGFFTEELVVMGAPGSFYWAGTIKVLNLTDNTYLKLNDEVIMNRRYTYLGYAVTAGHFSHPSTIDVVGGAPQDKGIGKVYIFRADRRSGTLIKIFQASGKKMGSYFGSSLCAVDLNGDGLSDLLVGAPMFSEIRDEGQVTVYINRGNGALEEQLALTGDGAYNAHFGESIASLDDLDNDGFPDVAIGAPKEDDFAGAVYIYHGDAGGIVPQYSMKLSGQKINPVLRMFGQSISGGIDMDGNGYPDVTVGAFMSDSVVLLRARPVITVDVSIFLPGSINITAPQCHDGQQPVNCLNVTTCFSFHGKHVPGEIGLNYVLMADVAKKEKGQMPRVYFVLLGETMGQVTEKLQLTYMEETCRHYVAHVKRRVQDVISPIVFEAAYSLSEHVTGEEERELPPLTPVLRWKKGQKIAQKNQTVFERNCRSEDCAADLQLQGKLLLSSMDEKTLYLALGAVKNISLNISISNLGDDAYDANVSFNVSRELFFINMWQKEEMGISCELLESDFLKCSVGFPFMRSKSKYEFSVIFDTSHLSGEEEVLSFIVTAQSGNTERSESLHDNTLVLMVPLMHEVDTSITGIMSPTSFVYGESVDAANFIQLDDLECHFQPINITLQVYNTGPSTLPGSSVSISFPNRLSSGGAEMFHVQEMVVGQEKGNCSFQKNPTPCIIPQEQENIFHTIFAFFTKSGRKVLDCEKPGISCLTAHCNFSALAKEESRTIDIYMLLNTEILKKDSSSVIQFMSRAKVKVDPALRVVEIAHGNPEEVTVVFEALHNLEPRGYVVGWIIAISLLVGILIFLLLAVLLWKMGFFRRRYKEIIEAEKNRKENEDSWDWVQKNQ
T1 sequence (P05556 21-798): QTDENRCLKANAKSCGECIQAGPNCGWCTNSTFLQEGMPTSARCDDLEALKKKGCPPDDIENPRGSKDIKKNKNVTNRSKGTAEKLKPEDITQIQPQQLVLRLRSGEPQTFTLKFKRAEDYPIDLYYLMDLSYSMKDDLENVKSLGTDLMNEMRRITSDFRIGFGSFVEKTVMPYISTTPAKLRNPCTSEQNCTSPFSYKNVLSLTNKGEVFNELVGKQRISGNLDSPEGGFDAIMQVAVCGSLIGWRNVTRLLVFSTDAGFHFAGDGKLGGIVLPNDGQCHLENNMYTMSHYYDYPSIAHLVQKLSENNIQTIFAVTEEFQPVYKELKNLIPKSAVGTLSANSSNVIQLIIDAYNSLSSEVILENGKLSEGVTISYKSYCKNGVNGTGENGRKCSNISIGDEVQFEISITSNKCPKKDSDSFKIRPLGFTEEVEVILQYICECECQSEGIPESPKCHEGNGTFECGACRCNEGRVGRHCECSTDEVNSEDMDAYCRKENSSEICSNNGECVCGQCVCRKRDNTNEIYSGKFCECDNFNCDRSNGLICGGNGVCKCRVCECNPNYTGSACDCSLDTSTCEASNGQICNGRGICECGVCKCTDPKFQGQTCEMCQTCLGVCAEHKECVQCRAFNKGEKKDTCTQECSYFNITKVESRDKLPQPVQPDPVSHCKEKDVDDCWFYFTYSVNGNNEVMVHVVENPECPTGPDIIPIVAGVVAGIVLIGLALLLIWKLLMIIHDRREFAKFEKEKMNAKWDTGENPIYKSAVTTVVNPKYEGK
T2 sequence (Q13797 30-1035): as the sequence (Q13797 30-1035) above
T2 sequence (P05556 21-798): as the sequence (P05556 21-798) above
T4 sequence (P13612 34-1032): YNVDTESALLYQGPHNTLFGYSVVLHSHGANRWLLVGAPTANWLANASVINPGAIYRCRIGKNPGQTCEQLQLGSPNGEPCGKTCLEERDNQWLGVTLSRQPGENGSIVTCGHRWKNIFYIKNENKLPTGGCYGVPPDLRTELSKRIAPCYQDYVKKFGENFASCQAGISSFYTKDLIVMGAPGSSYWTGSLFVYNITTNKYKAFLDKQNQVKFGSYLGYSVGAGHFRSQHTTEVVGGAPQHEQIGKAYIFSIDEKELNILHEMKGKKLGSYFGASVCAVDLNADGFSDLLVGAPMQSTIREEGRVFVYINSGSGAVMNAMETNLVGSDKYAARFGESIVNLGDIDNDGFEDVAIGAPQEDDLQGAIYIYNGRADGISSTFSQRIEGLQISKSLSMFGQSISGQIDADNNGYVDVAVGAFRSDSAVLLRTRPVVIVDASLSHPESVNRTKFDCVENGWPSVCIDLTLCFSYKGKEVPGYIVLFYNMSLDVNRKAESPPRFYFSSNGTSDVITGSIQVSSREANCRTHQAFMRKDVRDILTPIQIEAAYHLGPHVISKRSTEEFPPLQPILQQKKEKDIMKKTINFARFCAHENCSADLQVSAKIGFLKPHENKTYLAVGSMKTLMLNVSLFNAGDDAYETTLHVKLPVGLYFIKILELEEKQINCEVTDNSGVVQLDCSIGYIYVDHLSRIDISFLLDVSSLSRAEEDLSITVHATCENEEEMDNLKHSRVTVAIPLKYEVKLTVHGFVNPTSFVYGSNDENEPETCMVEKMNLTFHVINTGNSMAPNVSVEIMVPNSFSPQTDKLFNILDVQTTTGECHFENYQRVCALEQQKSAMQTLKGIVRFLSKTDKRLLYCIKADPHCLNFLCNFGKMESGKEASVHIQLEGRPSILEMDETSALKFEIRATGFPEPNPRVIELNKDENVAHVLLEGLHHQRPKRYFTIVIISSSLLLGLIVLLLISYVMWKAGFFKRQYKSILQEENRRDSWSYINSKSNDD
T4 sequence (P05556 21-798): as the sequence (P05556 21-798) above
T3 sequence (P13612 34-1032): as the sequence (P13612 34-1032) above
T3 sequence (P05556 21-798): as the sequence (P05556 21-798) above

`CCN(CC)c1ccc2c(-c3ccc(S(=O)(=O)NCc4cn(C5CC(C(=O)NC(Cc6ccc(OC(=O)N7CCCC7)cc6)C(=O)O)N(S(=O)(=O)c6ccccc6)C5)nn4)cc3S(=O)(=O)[O-])c3ccc(=[N+](CC)CC)cc-3oc2c1` (stereo not drawn) [R-BC154] was tested, and the “number of WBC, LSK or LSKSLAM in PB” value [1] was “not found to give significant increases”, the “off-rates for α9β1 compared to α4β1” value (α9β1 integrin; Example 2, FIG. 5c) was “significantly reduced off-rates” and the “R-BC154 still bound after 60 min” value (α9β1 integrin; α9β1, Mn2+, dissociation experiment) was “greater than 60%”. It also gave a koff (α9β1 integrin; α9β1 cells, 1 mM Ca2+/Mg2+) of 0.0009 s⁻¹, a kobs (α9β1 integrin; α9β1 cells, 1 mM Ca2+/Mg2+) of 3.117 min⁻¹ and a kon (α9β1 integrin; α9β1 cells, 1 mM Ca2+/Mg2+) of 1.02e+06 M⁻¹ s⁻¹. For the same compound, the kobs (α9β1 integrin; α9β1 cells, 1 mM Mn2+) was 2.035 min⁻¹, the kon (α9β1 integrin; α9β1 cells, 1 mM Mn2+) was about 670000 M⁻¹ s⁻¹ and the Kd (human integrin α9β1; 1 mM Ca2+/Mg2+) was 12.7 nM. For the same compound, the Kd (human integrin α9β1; 1 mM Mn2+) was 14.4 nM, the “greater affinity for α9β1 than α4β1” value (human integrin α9β1; Ca2+/Mg2+ conditions) was 3 fold and the “reduction in binding affinity to α9β1 compared to compound 22” value (human integrin α9β1; Ca2+/Mg2+ conditions) was 1.5 fold. The “integrin binding in the absence of cations” value (human integrin α9β1; TBS buffer only, LN18 α9β1 cells (FIG. 4)) was “no integrin binding was observed”, the “in vivo labelling of BM progenitor cells (LSK) and HSC (LSKSLAM)” value ([2]; 10 mg kg−1 intravenously, C57 mice, vs un-injected mice) was “Increased cell-associated fluorescence” and the “binding to BM LSK after s.c. treatment” value ([2]; 30 mins post-s.c.) was “persistent binding”. For the same compound, the “in vivo binding on α4−/−/α9−/− LSK cells” value ([2]; conditional KO mice injected with R-BC154) was “No binding”, the “proportion of R-BC154hi LSK and LSKSLAM cells, endosteal vs central BM” value ([2]; i.v. administration, C57Bl/6 mice) was “greater proportion of R-BC154^hi cells” and the “clearance following i.v. administration” value ([2]; i.v., mice) was under 5 min. The “binding on LSK in the PB compared to BM” value ([2]; s.c. administration) was “Minimal binding”, the “binding to human cord blood MNC” value ([3]; 1 mM Ca2+/Mg2+ vs no cations) was “Divalent cation and dose dependent binding” and the “binding to CD34+CD38− cells versus other MNC populations” value ([3]; activating conditions) was “greater binding was observed on stem cell enriched CD34^+CD38^− cells compared to lineage-committed CD34^− cells”. The Kd (human integrin α4β1; 1 mM Ca2+/Mg2+) was 38 nM, the “increase in binding affinity towards α4β1 under Mn2+ activation compared to Ca2+/Mg2+” value (human integrin α4β1; 1 mM Mn2+ vs Ca2+/Mg2+) was 3.1 fold and the Kd (human integrin α4β1; 1 mM Mn2+) was 12.4 nM. The “reduction in binding affinity to α4β1 compared to compound 22” value (human integrin α4β1; Ca2+/Mg2+ conditions) was 1.9 fold, the “binding to control cell line lacking integrin expression” value [4] was “Virtually no binding” and the “R-BC154 still bound after 60 min” value (α4β1 integrin; α4β1, Mn2+, dissociation experiment) was “greater than 60%”. The kobs (α4β1 integrin; 1 mM Ca2+/Mg2+) was 5.426 min⁻¹, the kon (α4β1 integrin; 1 mM Ca2+/Mg2+) was 1.57e+06 M⁻¹ s⁻¹ and the koff (α4β1 integrin; 1 mM Ca2+/Mg2+, fast phase of two-phase dissociation curve) was 0.012 s⁻¹. The koff (α4β1 integrin; 1 mM Mn2+) was 0.000233 s⁻¹, the kobs (α4β1 integrin; 1 mM Mn2+) was 1.891 min⁻¹ and the kon (α4β1 integrin; 1 mM Mn2+) was 633000 M⁻¹ s⁻¹.
